Measured values as given in patent US10968193B2, “Antidiabetic bicyclic compounds” (Merck Sharp & Dohme Corp., priority 2014, dated 2021).

biological target: T1, human GPR40 (Homo sapiens, UniProt O14842); assay: Inositol Phosphate Turnover (IP1) Assay 3; assay type: cell-based; conditions: HEK cells stably expressing human GPR40
T1 construct: expressed in transfected cells; host or cells: HEK cells stably expressing the aequorin reporter
Method: Human and mouse GPR40 stable cell-lines were generated in CHO cells stably expressing NFAT BLA (Beta-lactamase). A human GPR40 stable cell-line was generated in HEK cells stably expressing the aequorin expressing reporter. The expression plasmids were transfected using lipofectamine (Life Technologies) following manufacturer's instructions. Stable cell-lines were generated following drug selection.
Inositol Phosphate Turnover (IP1) Assay 3:
The assay was performed in 384-well format. HEK cells stably expressing human GPR40 were plated at 7500 cells per well in growth medium (DMEM/10% fetal calf serum). Cell plates were then incubated 16 hours at 37 degrees in a 5% CO2 incubator.
Measurement of Inositol Phosphate Turnover (IP) was performed using the CisBio IP-One kit (Part number 62IPAPEB). After the 16 hour incubation, the growth media was removed by centrifugation using the BlueWasher (AusWasher GUI Ver. v1.0.1.8) Protocol #21—“Light Dry” and 10 ul of stimulation buffer (prepared as described in the kit) was added to each well. In a separate plate, compounds were diluted in DMSO (200-fold over the final concentration in the assay well) and 50 nl was acoustically transferred to the appropriate well in the assay cell plate. The plates were then incubated for 60 minutes at 37 degrees in a 5% CO2 incubator. 10 ul of detection buffer (also prepared as described in the IP-One kit) was added to each well and the plates were incubated at rt for 60 minutes in the dark. The plates were then read in a Perkin Elmer EnVision or equivalent reader able to measure FRET. Fluorescent ratio of emission at 665 and 620 nm was then converted to IP1 concentration by back calculating from an IP1 standard curve prepared at the time of the assay. Data is normalized to % activity using a reference compound and EC50s determined using a standard 4-parameter fit.

T1 sequence (O14842 whole entry): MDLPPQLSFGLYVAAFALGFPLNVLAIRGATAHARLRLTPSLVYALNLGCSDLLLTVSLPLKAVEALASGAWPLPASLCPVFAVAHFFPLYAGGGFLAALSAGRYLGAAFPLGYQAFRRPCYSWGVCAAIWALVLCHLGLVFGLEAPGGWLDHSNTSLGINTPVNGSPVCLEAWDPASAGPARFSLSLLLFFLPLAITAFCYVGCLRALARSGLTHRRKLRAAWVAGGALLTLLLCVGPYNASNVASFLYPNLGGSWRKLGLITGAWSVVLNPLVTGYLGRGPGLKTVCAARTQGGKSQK

SMILES | EC50
COc1cc(-c2ccc(C3CCc4ccc([C@H](C5CC5)[C@H](C)C(=O)O)cc4O3)c(CN3CCCC3(C)C)c2)ccn1 (single isomer, unassigned) [Example 111a] | 3.2 nM
COc1cc(-c2ccc([C@@H]3CCc4ccc([C@H](C5CC5)[C@H](C)C(=O)O)cc4O3)cc2CN(C(C)C)C(C)C)c(F)cn1 [Example 225, Sodium (2S,3R)-3-cyclopropyl-3-((S)-2-(3-((diisopropylamino)methyl)-4-(5-fluoro-2-methoxypyridin-4-yl)phenyl)chroman-7-yl)-2-methylpropanoate] | 0.07 nM
COc1cc(-c2ccc(C3CCc4ccc([C@H](C5CC5)[C@H](C)C(=O)O)cc4O3)cc2CN2CCCCC2(C)C)ccn1 (some centres unmarked) [Example 242] | 3.1 nM
COc1cc(-c2ccc(C3CCc4ccc([C@H](C5CC5)[C@H](C)C(=O)O)cc4O3)cc2CN2[C@H](C)CC[C@H]2C)ccn1 (some centres unmarked) [Example 274] | 4.3 nM
COc1cc(-c2ccc(C3CCc4ccc([C@H](C5CC5)[C@H](C)C(=O)O)cc4O3)c(CN3CCCCC3(C)C)c2)ccn1 (mixture of isomers) [Example 117] | 0.6 nM
COc1cc(-c2ccc(C3CCc4ccc([C@H](C5CCC5)[C@H](C)C(=O)O)cc4O3)cc2CN2[C@H](C)CC[C@H]2C)c(F)cn1 (single isomer, unassigned) [Example 97] | 0.19 nM
CCN(C)C(C)c1cc(C2CCc3ccc([C@H](C4CC4)[C@@H](C)C(=O)O)cc3O2)ccc1-c1cc(OC)ncc1F (some centres unmarked) [Example 246] | 2.2 nM
CCN(CC)Cc1nc(C2CCc3ccc([C@H](C4CC4)[C@H](C)C(=O)O)cc3O2)ccc1-c1cc(OC)ncc1F (single isomer, unassigned) [Example 88] | 6.7 nM
COc1cc(-c2ccc(C3CCc4ccc([C@H](C5CC5)[C@H](C)C(=O)O)cc4O3)c(CN3CCCC[C@H]3C)c2)ccn1 (mixture of isomers) [Example 120] | 0.7 nM
CCC1CCCCN1Cc1cc(C2CCc3ccc(C(C4CC4)C(C)C(=O)O)cc3O2)ccc1-c1ccnc(OC)c1 (single isomer, unassigned) [Example 258b] | 2.2 nM
COc1cc(-c2ccc(C3CCc4ccc([C@H](C5CC5)[C@H](C)C(=O)O)cc4O3)cc2C(C)N2CCCC2)ccn1 (some centres unmarked) [Example 249] | 14.2 nM
COc1ccc(F)c(-c2ccc(C3CCc4ccc([C@H](C5CC5)[C@H](C)C(=O)O)cc4O3)cc2CN2CCCCC23CC3)n1 (some centres unmarked) [compound 190] | 3.9 nM
COc1cc(-c2ccc(C3CCc4ccc([C@H](C5CC5)[C@H](C)C(=O)O)cc4O3)c(CN3CCC[C@H]3C)c2)ccn1 (single isomer, unassigned) [Example 119a] | 308 nM
COc1cc(-c2ccc(C3CCc4ccc([C@H](C5CC5)[C@H](C)C(=O)O)cc4O3)c(CN3CCCCC3(C)C)c2)c(F)cn1 (single isomer, unassigned) [Example 128b] | 1.2 nM
CCOc1cc(-c2ccc(C3CCc4ccc([C@H](C5CC5)[C@H](C)C(=O)O)cc4O3)c(CN(C)C(C)(C)C)c2)c(F)cn1 (single isomer, unassigned) [Example 132b] | 106 nM
COc1cc(-c2ccc(C3CCc4ccc([C@H](C5CC5)[C@H](C)C(=O)O)cc4O3)c(CN3[C@H](C)CC[C@H]3C)c2)ccn1 (single isomer, unassigned) [Example 116a] | 1.7 nM
CCC1CCCN1Cc1cc(C2CCc3ccc([C@H](C4CC4)[C@H](C)C(=O)O)cc3O2)ccc1-c1cc(OC)ncc1F (single isomer, unassigned) [Example 267b] | 0.1 nM
COc1cc(-c2ccc(C3CCc4ccc([C@H](C5CC5)[C@H](C)C(=O)O)cc4O3)cc2CN2CCC(C#N)CC2)c(F)cn1 (some centres unmarked) [Example 271] | 2.6 nM
COc1cc(-c2ccc(C3CCc4ccc([C@H](C5CC5)[C@H](C)C(=O)O)cc4O3)cc2CN2C[C@H]3CC[C@@H]2C3)c(F)cn1 (some centres unmarked) [Example 269] | 6.2 nM
COc1cc(-c2ccc(C3CCc4ccc([C@H](C5CC5)[C@H](C)C(=O)O)cc4O3)c(CN3[C@H](C)CC[C@H]3C)c2)ccn1 (some centres unmarked) [Example 116] | 104 nM
